Measured values as given in US8686028B2, “Substituted benzfurochromenes and related compounds for the prevention and treatment of bone related disorders” (Council of Scientific & Industrial Research, priority 2008, dated 2014).

Columns and labels:
[1] = system: Calvarial osteoblasts; experiment: Alkaline phosphatase (ALP) activity for osteoblast differentiation, calvarial osteoblasts; assay type: cell-based, rat; conditions: osteoblasts, concentrations not given
Experimental: (§1) Neonatal rat calvarial cell cultures are prepared as described previously (Endocrinology 145:3451) using slight modification. Briefly, for primary osteoblast cell cultures, frontal and parietal bones from Sprague-Dawley rat neonates (1-3 day old) are digested in 0.1% collagenase/0.1% dispase in α-MEM to obtain 5 sequential digests. The second through fifth digests are combined and grown to confluence at 37° C. and 5% CO2 in air in α-MEM, supplemented with 10% fetal bovine serum (FBS), 2 mM glutamine, 100 U/ml penicillin-streptomycin, Non-essential amino acid solution and sodium pyruvate.
70 to 80% confluent Calvarial osteoblasts were treated with μM S006-1709 for 48 h in the presence of ascorbate and glycerophosphate. At the end of incubation period, total ALP activity was measured with a method using p-nitrophenylphosphate (PNPP) as substrate. The reaction mixture contained diethanolamine buffer (1 mol/L, pH 9.8), 0.5 mmol/L MgCl2.6H2O, and 10 mmol/L PNPP. ALP activity was measured by taking OD of the amount of colored product formed by the dephosphorylation of PNPP at 405 nm. […] In addition, the effect of S006-1709 on mineralization of calvarial osteoblasts was studied.
We then studied its effect in osteoblast differentiation in both calvarial and bone marrow osteoblasts. Confluent calvarial osteoblasts (70 to 80%) were treated with S006-1710 for 48 h in the presence of ascorbate and glycerophosphate at concentrations ranging from 10^−16M to 10^−6M. At the end of incubation period, total ALP activity was measured with the same method used previously using p-nitrophenylphosphate (PNPP) as substrate.
70 to 80% confluent Calvarial osteoblasts were treated with S007-1351 for 48 h in the presence of ascorbate and glycerophosphate. At the end of incubation period, total ALP activity was measured with a method using p-nitrophenylphosphate (PNPP) as substrate. The reaction mixture contained diethanolamine buffer (1 mol/L, pH 9.8), 0.5 mmol/L MgCl2.6H2O, and 10 mmol/L PNPP. ALP activity was measured by taking OD of the amount of colored product formed by the dephosphorylation of PNPP at 405 nm.
70 to 80% confluent calvarial osteoblasts were treated with S007-1352 for 48 h in the presence of ascorbate and glycerophosphate at concentrations ranging from 10^−12M to 10^−6 M. At the end of incubation period, total ALP activity was measured with the same method used previously using p-nitrophenylphosphate (PNPP) as substrate.

[2] = system: Calvarial osteoblast cells; experiment: MTT cell proliferation assay; assay type: cell-based, rat; conditions: 10^−10 M to 10^−6M, 24 hrs
Experimental: as §1
MTT [3-(4,5-dimethylthiazol-2-yl)-2,5-diphenyltetrazolium bromide] assay, first described by Mosmann in 1983, is based on the ability of a mitochondrial dehydrogenase enzyme from viable cells to cleave the tetrazolium rings of the pale yellow MTT and form a dark blue formazan crystals which is largely impermeable to cell membranes, thus resulting in its accumulation within healthy cells. Solubilisation of the cells by the addition of a detergent results in the liberation of the crystals which are solubilized. The number of surviving cells is directly proportional to the level of the formazan product created. The color can then be quantified using a simple colorimetric assay. The results can be read on a multiwell scanning spectrophotometer (Mosmann T. Rapid colorimetric assay for cellular growth and survival: application to proliferation and cytotoxicity assays. J Immunol Methods. 1983 Dec. 16; 65(1-2):55-63).
Calvarial osteoblast cells plated at a density of 2.0×10^3 cells/200 ul in 96 wells plates. Cells were grown to 60% confluency and then treated with following compounds S006-1709, S006-1710, 5006-1711, S006-1713 and; S006-1714 at concentrations ranging from 10^−10 M to 10^−6M for 24 hrs. After treatment media was removed and 10 mM MTT was added solution in phenol red free DMEM media. After an incubation of 4 hrs the MTT solution was removed. Blue colored crystals were formed which were dissolved in DMSO and absorbance was read on ELISA plate reader at 570 nm wavelength.

[3] = system: ovariectomized immature female rats; experiment: Estrogenicity, uterine fresh weight in ovariectomized immature female rats; assay type: in vivo, rat; conditions: reference standard, 0.01 mg/Kg, three consecutive days; vehicle 16.46
Experimental: 21 day old immature female rats (25-30 grams) were ovariectomized and given 7 days post-operative rest. Thereafter they were treated orally with the test agent (10 mg/Kg body weight) or with vehicle or Ethynyl estradiol, the reference standard for three consecutive days. For anti-estrogenicity, other than the test chemical, ethynyl estradiol (0.01 mg/kg) was given at 15 minutes interval before the test chemical. Autopsy was done 24 h after last treatment and uterine fresh weight was taken.

Structure (SMILES) | stimulation of ALP activity [1] | melting point | effect on osteoblast proliferation (MTT) [2] | Estrogenic Activity (uterine fresh weight) [3]
Cc1c(O)ccc2c(=O)c(-c3ccccc3O)coc12 [Compound S007-1498, 7-Hydroxy-3-(2-hydroxy-phenyl)-8-methyl-chromen-4-one] | non-significant | 196 to 198 °C |  | 
Cc1c(O)ccc2c1OCC1c3ccccc3OC21 (stereo not drawn) [Compound S007-1499, 4-Methyl-6a,11a-dihydro-6H-benzo[4,5]furo[3,2-c]chromen-3-ol] | non-significant | 160 to 162 °C |  | 
C#C[C@]1(O)CC[C@H]2[C@@H]3CCc4cc(O)ccc4[C@H]3CC[C@@]21C [Ethnyl Estradiol, Ethynyl estradiol, reference compound] |  |  |  | 98.3
COc1ccccc1-c1coc2cc(O)c(Cl)cc2c1=O [Compound S007-1355, 6-Chloro-7-hydroxy-3-(2-methoxy-phenyl)-chromen-4-one] | non-significant | 228 to 230 °C |  | 
Cc1c(OCC#N)ccc2c1OCC1c3ccccc3OC21 (stereo not drawn) [Compound S007-1501, (4-Methyl-6a,11a-dihydro-6H-benzo[4,5]furo[3,2-e]chromen-3-yloxy)-acetonitrile] | non-significant |  |  | 
CC(C)Oc1ccc2c(c1)OCC1c3ccccc3OC21 (stereo not drawn) [Compound S-008-0398, 3-Isopropoxy-6a,11a-dihydro-6H-benzofuro[3,2-c]chromene] |  | 96 to 98 °C |  | 

Continued, in another order:

stimulation of ALP activity [1] | melting point | Structure (SMILES) | effect on osteoblast proliferation (MTT) [2] | Estrogenic Activity (uterine fresh weight) [3]
non-significant | > 250 °C | O=c1c(-c2ccccc2O)coc2cc(O)c(Cl)cc12 [Compound S007-1354, 6-Chloro-7-hydroxy-3-(2-hydroxy-phenyl)-chromen-4-one] |  | 
non-significant |  | COc1ccc(-c2coc3cc(O)ccc3c2=O)c(OC)c1 [Compound S006-1713, 3-(2,4-Dimethoxy-phenyl)-7-hydroxy-chromen-4-one] | did not have any effect | 
 | 72 to 74 °C | C=CCOc1ccc2c(c1)OCC1c3ccccc3OC21 (stereo not drawn) [Compound S-008-0625, 3-(Allyloxy)-6a,11a-dihydro-6H-benzofuro[3,2-c]chromene] |  | 
 | 202 to 204 °C | c1ccc2c(c1)OC1c3ccc(OCCN4CCCCC4)cc3OCC21 (stereo not drawn) [Compound S-008-0399, 1-(2-(6a,11a-Dihydro-6H-benzofuro[3,2-c]chromen-3-yloxy)ethyl)piperidine] |  | 
non-significant | 210 to 212 °C | COc1ccc(-c2coc3cc(O)ccc3c2=O)c(O)c1 [Compound S006-1714, 7-Hydroxy-3-(2-hydroxy-4-methoxy-phenyl)-chromen-4-one] | did not have any effect | 
